What was measured:
Type in all cases: cell-based
[1] = tested on: Trichomonas vaginalis UCH-1; assay: in vitro growth inhibition of Trichomonas vaginalis; conditions: for IC50: in vitro, concentration required to inhibit 50% of the growth of the organisms; for effective against T. vaginalis: result in words
[2] = tested on: Giardia intestinalis JKH-1; assay: in vitro growth inhibition of Giardia intestinalis; conditions: for effective against G. intestinalis: result in words; for IC50: Giardia duodenalis, in vitro, concentration required to inhibit 50% of the growth of the organisms
Helicobacter pylori = assay: activity against Helicobacter pylori; conditions: result in words
Campylobacter jejuni = assay: activity against Campylobacter jejuni; conditions: result in words
Influenza A = assay: activity against Influenza A; conditions: result in words
Influenza B = assay: activity against Influenza B; conditions: result in words
Herpes Varicella A = assay: activity against Herpes Varicella (VZV); conditions: result in words
P. falciparum = assay: activity against P. falciparum; conditions: result in words

SMILES | effective against G. intestinalis [2] | effective against T. vaginalis [1] | IC50 [2] [nM] | IC50 ([1]; Trichomonas vaginalis, UCH1) [nM] | further results
O=C(Nc1ncc([N+](=O)[O-])s1)c1ccccc1O [Compound A, 2-hydroxy-N-(5-nitro-2-thiazolyl) benzamide, reference compound] |  |  |  |  | IC50 [1]: 1520 nM
CC(=O)Oc1cc(C)ccc1C(=O)Nc1ncc([N+](=O)[O-])s1 [Compound F, 2-acetyloxy-4-methyl-N-(5-nitro-2-thiazolyl) benzamide] | effective | effective |  |  | 
CC(=O)Oc1ccc(C)cc1C(=O)Nc1ncc([N+](=O)[O-])s1 [Compound H, 2-acetyloxy-5-methyl-N-(5-nitro-2-thiazolyl) benzamide] | effective | effective |  |  | 
CC(=O)Oc1ccccc1C(=O)Nc1ncc([N+](=O)[O-])s1 [Compound B, 2-acetyloxy-N-(5-nitro-2-thiazolyl)benzamide, reference compound] |  |  | 12500 | 605 | 
CC(=O)Oc1c(C)cccc1C(=O)Nc1ncc([N+](=O)[O-])s1 [Compound D, 2-acetyloxy-3-methyl-N-(5-nitro-2-thiazolyl) benzamide] | effective | effective | 560 | 8040 | potency against Giardia intestinalis compared to nitazoxanide ([2]; comparison in words, from TABLE I): significantly more potent than nitazoxanide; effective against H. Pylori (Helicobacter pylori): effective; effective against C. jejuni (Campylobacter jejuni): effective; effective against Influenza A (Influenza A): effective; effective against Influenza B (Influenza B): effective; effective against Herpes VZV (Herpes Varicella A): effective; effective against P. falciparum (P. falciparum): effective

— patent publication US20060194853A1, “Alkyl benzamides” (priority 2004, published 2006)
